Target: T1, Recombinant human KIF18A (1-467 His-tagged) protein (Homo sapiens, UniProt Q8NI77)
T1 construct: Recombinant human KIF18A (1-467 His-tagged) protein; His; made in house
Assay: KIF18A Enzyme Assay: microtubule-stimulated ATPase activity (ADP-Glo)
Assay type: biochemical
Settings: 30 nM KIF18A, 75 μM ATP
Text: KIF18A Enzyme Assay: Microtubule-stimulated ATPase activity assay is used to measure KIF18A enzyme activity after treatment with compound. Compounds were 2-fold serially diluted in DMSO (Sigma Inc) over 22-point concentration range. Recombinant human KIF18A (1-467 His-tagged) protein was expressed using a baculovirus system and purified by affinity chromatography by Amgen Inc. Concentrations of KIF18A protein, microtubules (MT), and ATP in the reaction were optimized for standardized homogenous enzyme assay using ADP-Glorm Kinase/ATPase Assay Kit (Promega Inc). The assay measures ADP formed from the ATPase reaction. […] Read luminescence using EnVision microplate reader with ultra-luminescence module (Perkin Elmer Inc). Concentration-response curve-fitting and IC50 determination was performed using Genedata Screener Software (Standard 15.0.1, Genedata Inc) with a four-parameter logistic regression fit model.
Table A provides data for compounds exemplified in the present application and priority document thereof, as representative compounds of the present invention, as follows: chemical name (as named by either ACD software or ChemDraw (Professional 15.0)) and biological data (IC50 in μM). Ex. # refers to Example No.

T1 sequence (Q8NI77 1-467): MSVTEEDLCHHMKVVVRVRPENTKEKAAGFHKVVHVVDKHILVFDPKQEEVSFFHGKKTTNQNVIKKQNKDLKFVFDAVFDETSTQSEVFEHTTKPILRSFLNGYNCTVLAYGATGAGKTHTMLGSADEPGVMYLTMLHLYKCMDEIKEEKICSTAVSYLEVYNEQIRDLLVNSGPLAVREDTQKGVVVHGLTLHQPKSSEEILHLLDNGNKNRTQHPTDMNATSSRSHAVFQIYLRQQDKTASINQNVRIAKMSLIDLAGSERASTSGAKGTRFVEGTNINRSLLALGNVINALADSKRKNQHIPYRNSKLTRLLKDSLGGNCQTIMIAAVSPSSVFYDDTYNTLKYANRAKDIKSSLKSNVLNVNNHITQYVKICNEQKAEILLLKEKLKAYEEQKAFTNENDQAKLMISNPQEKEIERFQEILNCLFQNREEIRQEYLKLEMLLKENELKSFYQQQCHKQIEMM
T1 sequence (P02550 whole entry partner): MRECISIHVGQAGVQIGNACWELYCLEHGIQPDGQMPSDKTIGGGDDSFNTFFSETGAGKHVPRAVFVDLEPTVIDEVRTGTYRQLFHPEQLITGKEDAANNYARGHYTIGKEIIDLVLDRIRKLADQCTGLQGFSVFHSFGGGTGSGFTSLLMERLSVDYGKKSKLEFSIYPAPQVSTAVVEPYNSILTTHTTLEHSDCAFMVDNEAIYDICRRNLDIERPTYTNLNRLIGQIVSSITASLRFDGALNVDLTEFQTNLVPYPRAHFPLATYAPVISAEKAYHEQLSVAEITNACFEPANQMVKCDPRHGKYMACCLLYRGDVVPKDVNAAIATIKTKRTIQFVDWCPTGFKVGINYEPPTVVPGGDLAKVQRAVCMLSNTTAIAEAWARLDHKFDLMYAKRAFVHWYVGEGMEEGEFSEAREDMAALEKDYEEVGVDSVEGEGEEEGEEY
T1 sequence (P02554 whole entry partner): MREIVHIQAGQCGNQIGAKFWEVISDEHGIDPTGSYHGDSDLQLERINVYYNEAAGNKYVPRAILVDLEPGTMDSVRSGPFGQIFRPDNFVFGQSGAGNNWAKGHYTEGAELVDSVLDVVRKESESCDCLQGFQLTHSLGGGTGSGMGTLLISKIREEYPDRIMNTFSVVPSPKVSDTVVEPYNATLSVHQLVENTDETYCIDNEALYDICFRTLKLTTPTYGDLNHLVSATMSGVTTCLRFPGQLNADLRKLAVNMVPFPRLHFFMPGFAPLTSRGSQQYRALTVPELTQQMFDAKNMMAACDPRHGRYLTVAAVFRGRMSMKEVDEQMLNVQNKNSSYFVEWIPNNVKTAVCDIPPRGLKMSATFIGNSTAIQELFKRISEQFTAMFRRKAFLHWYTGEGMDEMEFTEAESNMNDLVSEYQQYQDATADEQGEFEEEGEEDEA

| SMILES | IC50 [nM] |
| --- | --- |
| CC(C)(C)NS(=O)(=O)c1cccc(NC(=O)c2ccc(NC3(CO)COC3)nc2N2CCC3(CC2)CC3)c1 [Example 102-27, N-(3-(N-(tert-butyl)sulfamoyl)phenyl)-6-((3-(hydroxymethyl)oxetan-3-yl)amino)-2-(6-azaspiro[2.5]octan-6-yl)nicotinamide] | 80 |
| CC(C)CS(=O)(=O)c1cccc(NC(=O)c2ccc(NC(C)(C)CO)nc2N2CCC3(CC2)CC3)c1 [Example 105-4, 6-((1-hydroxy-2-methylpropan-2-yl)amino)-N-(3-(isobutylsulfonyl)phenyl)-2-(6-azaspiro[2.5]octan-6-yl)nicotinamide] | 42 |
| O=C(Nc1cccc(S(=O)(=O)C2CCCC2)c1)c1ccc(NC2(CO)CC2)nc1N1CCC2(CC1)CC2 [Example 103-4, N-(3-(cyclopentylsulfonyl)phenyl)-6-((1-(hydroxymethyl)cyclopropyl)amino)-2-(6-azaspiro[2.5]octan-6-yl)nicotinamide] | 39 |
| Cc1ccc(NC(=O)c2ccc(NC(C)(C)CO)nc2N2CCC3(CC2)CC3)cc1N1CCCC1=O [Example 105-29, 6-((1-hydroxy-2-methylpropan-2-yl)amino)-N-(4-methyl-3-(2-oxopyrrolidin-1-yl)phenyl)-2-(6-azaspiro[2.5]octan-6-yl)nicotinamide] | 279 |
| Cc1ccc(NC(=O)c2cccnc2N2CCC3(CC2)CC3)cc1S(=O)(=O)N1CCCCC1 [Example 100-10, N-(4-methyl-3-(piperidin-1-ylsulfonyl)phenyl)-2-(6-azaspiro[2.5]octan-6-yl)nicotinamide] | 211 |
| CC(C)(O)C(C)(C)Nc1ccc(C(=O)Nc2cccc(S(=O)(=O)C3CCCC3)c2)c(N2CCC3(CC2)CC3)n1 [Example 103-18, N-(3-(cyclopentylsulfonyl)phenyl)-6-((3-hydroxy-2,3-dimethylbutan-2-yl)amino)-2-(6-azaspiro[2.5]octan-6-yl)nicotinamide] | 109 |
| CC(C)(C)NS(=O)(=O)c1cccc(NC(=O)c2ccc(N3CC[C@H](O)C3)nc2N2CCC3(CC2)CC3)c1 [Example 102-4, (S)-N-(3-(N-(tert-butyl)sulfamoyl)phenyl)-6-(3-hydroxypyrrolidin-1-yl)-2-(6-azaspiro[2.5]octan-6-yl)nicotinamide] | 234 |
| CC(C)(C)NS(=O)(=O)c1cccc(NC(=O)c2ccc(NC3CCC3)nc2N2CCC3(CC2)CC3)c1 [Example 102-16, N-(3-(N-(tert-butyl)sulfamoyl)phenyl)-6-(cyclobutylamino)-2-(6-azaspiro[2.5]octan-6-yl)nicotinamide] | 221 |
| O=C(Nc1cccc(S(=O)(=O)C2CCCC2)c1)c1cccnc1N1CCC2(CC1)CC2 [Example 100-14, N-(3-(cyclopentylsulfonyl)phenyl)-2-(6-azaspiro[2.5]octan-6-yl)nicotinamide] | 287 |
| CC(C)(C)NS(=O)(=O)c1cccc(NC(=O)c2ccc([C@@](C)(O)C(F)(F)F)nc2N2CCC3(CC2)CC3)c1 (single isomer, unassigned) [Example 107-2] | 97 |
| Cc1ccc(NC(=O)c2cccnc2N2CCC3(CC2)CC3)cc1S(=O)(=O)C1CCCC1 [Example 100-20, N-(3-(cyclopentylsulfonyl)-4-methylphenyl)-2-(6-azaspiro[2.5]octan-6-yl)nicotinamide] | 279 |
| O=C(Nc1cccc(S(=O)(=O)C2CCCC2)c1)c1ccc(OC2COC2)nc1N1CCC2(CC1)CC2 [Example 104, N-(3-(cyclopentylsulfonyl)phenyl)-6-(oxctan-3-yloxy)-2-(6-azaspiro[2.5]octan-6-yl)nicotinamide] | 296 |
| O=C(Nc1cccc(S(=O)(=O)CC2CC2)c1)c1cccnc1N1CCC2(CC1)CC2 [Example 100-22, N-(3-((cyclopropylmethyl)sulfonyl)phenyl)-2-(6-azaspiro[2.5]octan-6-yl)nicotinamide] | 910 |
| CCC1CCN(c2ncccc2C(=O)Nc2cccc(S(=O)(=O)N3CCCCC3)c2)CC1 [Example 100-2, 2-(4-ethylpiperidin-1-yl)-N-(3-(piperidin-1-ylsulfonyl)phenyl)nicotinamide] | 983 |
| CC(C)(C)NS(=O)(=O)c1cccc(NC(=O)c2ccc(N3CC(S(C)(=O)=O)C3)nc2N2CCC3(CC2)CC3)c1 [Example 102-15, N-(3-(N-(tert-butyl)sulfamoyl)phenyl)-6-(3-(methylsulfonyl)azetidin-1-yl)-2-(6-azaspiro[2.5]octan-6-yl)nicotinamide] | 182 |
| CC1(NS(=O)(=O)c2cccc(NC(=O)c3cccnc3N3CCC4(CC3)CC4)c2)CCC1 [Example 101-3, N-(3-(N-(1-methylcyclobutyl)sulfamoyl)phenyl)-2-(6-azaspiro[2.5]octan-6-yl)nicotinamide] | 189 |
| Cc1ccc(NC(=O)c2ccc(NC(C)(C)CO)nc2N2CCC3(CC2)CC3)cc1-c1ccncc1 [Example 111-12, 6-((1-hydroxy-2-methylpropan-2-yl)amino)-N-(4-methyl-3-(pyridin-4-yl)phenyl)-2-(6-azaspiro[2.5]octan-6-yl)nicotinamide] | 386 |
| Cc1ccc(NC(=O)c2ccc(NC(C)(C)CO)nc2N2CCC3(CC2)CC3)cc1-c1cc[nH]n1 [Example 111-3, 6-((1-hydroxy-2-methylpropan-2-yl)amino)-N-(4-methyl-3-(1H-pyrazol-3-yl)phenyl)-2-(6-azaspiro[2.5]octan-6-yl)nicotinamide] | 342 |
| Cn1ccnc1-c1cccc(NC(=O)c2ccc(NC(C)(C)CO)nc2N2CCC3(CC2)CC3)c1 [Example 111-9, 6-((1-hydroxy-2-methylpropan-2-yl)amino)-N-(3-(1-methyl-1H-imidazol-2-yl)phenyl)-2-(6-azaspiro[2.5]octan-6-yl)nicotinamide] | 437 |
| CC1(NS(=O)(=O)c2cccc(NC(=O)c3ccc(NC(CO)CO)nc3N3CCC4(CC3)CC4)c2)CCC1 [Example 106-1, 6-((1,3-dihydroxypropan-2-yl)amino)-N-(3-(N-(1-methylcyclobutyl)sulfamoyl)phenyl)-2-(6-azaspiro[2.5]octan-6-yl)nicotinamide] | 78 |
| Cc1ccc(NC(=O)c2ccc(NC(C)(C)CO)nc2N2CCC3(CC2)CC3)cc1S(=O)(=O)C1CCCC1 [Example 105-8, N-(3-(cyclopentylsulfonyl)-4-methylphenyl)-6-((1-hydroxy-2-methylpropan-2-yl)amino)-2-(6-azaspiro[2.5]octan-6-yl)nicotinamide] | 55 |
| O=C(Nc1cccc(S(=O)(=O)C2CCCC2)c1)c1ccc(NCC2(O)CC2)nc1N1CCC2(CC1)CC2 [Example 103-8, N-(3-(cyclopentylsulfonyl)phenyl)-6-(((1-hydroxycyclopropyl)methyl)amino)-2-(6-azaspiro[2.5]octan-6-yl)nicotinamide] | 42 |
| C[C@H](CO)Nc1ccc(C(=O)Nc2cccc(S(=O)(=O)C3CCCC3)c2)c(N2CCC3(CC2)CC3)n1 [Example 103-10, (R)-N-(3-(cyclopentylsulfonyl)phenyl)-6-((1-hydroxypropan-2-yl)amino)-2-(6-azaspiro[2.5]octan-6-yl)nicotinamide] | 42 |
| O=C(Nc1cccc(S(=O)(=O)C2CCCC2)c1)c1ccc(NC2(CCO)CC2)nc1N1CCC2(CC1)CC2 [Example 103-19, N-(3-(cyclopentylsulfonyl)phenyl)-6-((1-(2-hydroxyethyl)cyclopropyl)amino)-2-(6-azaspiro[2.5]octan-6-yl)nicotinamide] | 55 |

Source: patent US12540129B2, “KIF18A inhibitors” (AMGEN INC., priority 2019, dated 2026)
